Activity calls are given as the source filed them.
How the values were obtained:
[1] = target: DNA (cytosine-5)-methyltransferase 1 (Homo sapiens, UniProt P26358); test: DNMT1 methyltransferase inhibitors, confirmation, biochemical, fluorescent molecular beacon (AID 602386); assay type: functional
[2] = target: T1, Carboxy-terminal domain RNA polymerase II polypeptide A small phosphatase 1 (Homo sapiens, UniProt Q9GZU7); test: inhibitors of CTDSP1, concentration-response testing, biochemical assay, absorbance-based, actives from ultra-high-throughput screening (AID 540297); assay type: functional
T1 sequence (Q9GZU7 whole entry): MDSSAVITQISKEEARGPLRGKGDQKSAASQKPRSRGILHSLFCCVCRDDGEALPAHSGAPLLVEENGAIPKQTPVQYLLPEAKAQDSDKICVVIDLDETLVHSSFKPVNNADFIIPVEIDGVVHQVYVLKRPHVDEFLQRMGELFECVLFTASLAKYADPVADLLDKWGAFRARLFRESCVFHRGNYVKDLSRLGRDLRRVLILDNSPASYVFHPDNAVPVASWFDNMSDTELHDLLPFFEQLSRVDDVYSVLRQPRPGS

[3] = target: Induced myeloid leukemia cell differentiation protein Mcl-1 (Homo sapiens, UniProt Q07820); assay type: functional
Induced myeloid leukemia cell differentiation protein Mcl-1, sequence (Q07820 whole entry): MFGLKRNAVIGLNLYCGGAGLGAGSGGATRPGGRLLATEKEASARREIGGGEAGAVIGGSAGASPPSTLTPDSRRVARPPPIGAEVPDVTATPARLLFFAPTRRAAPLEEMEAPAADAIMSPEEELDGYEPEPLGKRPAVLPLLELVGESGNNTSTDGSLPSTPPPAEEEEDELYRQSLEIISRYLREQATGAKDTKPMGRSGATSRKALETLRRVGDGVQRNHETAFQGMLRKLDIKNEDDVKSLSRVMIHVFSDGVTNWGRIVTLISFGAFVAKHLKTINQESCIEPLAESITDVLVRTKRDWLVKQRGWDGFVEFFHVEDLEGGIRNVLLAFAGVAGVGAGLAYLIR

[4] = A cytotoxicity screen of small molecule inhibitors of the PhoP region in Salmonella typhi identified in the primary screen. [Related pubchem assays: 1850, 1864, 1985 ]; assay type: functional
[5] = THP-1 cell cytotoxicity, dose response, cytotoxicity control for non-replicating M. tuberculosis project (AID 489025); assay type: functional
cells = assay type: functional
Streptococcus = test: Group A Streptococcus viability loss, dose response, counter-screen for streptokinase expression inhibitor project, luminescence, BacTiterGlo (AID 1915); assay type: functional, organism-based;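 also: potency for reduction of bacterial viability or growth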
[6] = Vero E6 cell cytotoxicity, dose response, cytotoxicity control for non-replicating M. tuberculosis project, secondary assay (AID 492998); assay type: functional, VeroE6; settings: Vero C1008
Streptokinase A = target: T2, Streptokinase A (Streptococcus pyogenes serotype M1, UniProt P10520); test: S. pyogenes streptokinase expression inhibitors, potency, dose response, plasminogen activation absorbance, OD405 (AID 1914); assay type: functional, Streptococcus pyogenes M1 GAS;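 also: secreted streptokinase activity via plasminogen activation per viability signal from cell pellet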
T2 sequence (P10520 whole entry): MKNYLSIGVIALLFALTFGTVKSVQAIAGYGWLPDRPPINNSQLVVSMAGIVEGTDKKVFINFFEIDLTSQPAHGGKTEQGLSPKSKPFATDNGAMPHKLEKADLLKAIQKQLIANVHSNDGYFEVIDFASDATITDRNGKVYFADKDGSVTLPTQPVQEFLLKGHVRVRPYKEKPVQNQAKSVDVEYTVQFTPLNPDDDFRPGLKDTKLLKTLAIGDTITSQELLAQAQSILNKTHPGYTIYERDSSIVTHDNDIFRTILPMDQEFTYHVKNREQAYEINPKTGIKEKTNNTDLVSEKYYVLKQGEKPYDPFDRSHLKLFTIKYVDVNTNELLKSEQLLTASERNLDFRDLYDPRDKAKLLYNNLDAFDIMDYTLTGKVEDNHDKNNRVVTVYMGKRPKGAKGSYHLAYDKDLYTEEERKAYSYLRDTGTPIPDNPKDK

[7] = AlphaScreen signal interference compounds, dose response, artefact control for ARNT-TACC3 interaction inhibitor project, biochemical, luminescence, cherry-pick (AID 651705); assay type: functional;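 also: AlphaScreen bead proximity signal that flags compounds interfering with the detection technology; potency reflects signal decrease which marks the compound as an assay artifact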
[8] = system: Streptococcus sp. 'group A'; test: growth inhibition of control SK(-) GAS strain, dose response, counter-screen for streptokinase expression inhibitor project, luminescence, kanamycin, BacTiterGlo, confirmation (AID 1900); assay type: functional, organism-based
[9] = intracellular Trypanosoma cruzi inhibitors in host cells – cell-based, plate reader, cherry-pick samples, set 3, dose response (AID 651818); assay type: functional;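 also: compounds incubated with infected cells for about four days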
[10] = target: T3, Sentrin-specific protease 6 (Homo sapiens, UniProt Q9GZR1); assay type: functional;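 also: Luminescence-based dose-response confirmatory assay of SENP6 inhibition, following up an ultra-high-throughput screen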
T3 sequence (Q9GZR1 whole entry): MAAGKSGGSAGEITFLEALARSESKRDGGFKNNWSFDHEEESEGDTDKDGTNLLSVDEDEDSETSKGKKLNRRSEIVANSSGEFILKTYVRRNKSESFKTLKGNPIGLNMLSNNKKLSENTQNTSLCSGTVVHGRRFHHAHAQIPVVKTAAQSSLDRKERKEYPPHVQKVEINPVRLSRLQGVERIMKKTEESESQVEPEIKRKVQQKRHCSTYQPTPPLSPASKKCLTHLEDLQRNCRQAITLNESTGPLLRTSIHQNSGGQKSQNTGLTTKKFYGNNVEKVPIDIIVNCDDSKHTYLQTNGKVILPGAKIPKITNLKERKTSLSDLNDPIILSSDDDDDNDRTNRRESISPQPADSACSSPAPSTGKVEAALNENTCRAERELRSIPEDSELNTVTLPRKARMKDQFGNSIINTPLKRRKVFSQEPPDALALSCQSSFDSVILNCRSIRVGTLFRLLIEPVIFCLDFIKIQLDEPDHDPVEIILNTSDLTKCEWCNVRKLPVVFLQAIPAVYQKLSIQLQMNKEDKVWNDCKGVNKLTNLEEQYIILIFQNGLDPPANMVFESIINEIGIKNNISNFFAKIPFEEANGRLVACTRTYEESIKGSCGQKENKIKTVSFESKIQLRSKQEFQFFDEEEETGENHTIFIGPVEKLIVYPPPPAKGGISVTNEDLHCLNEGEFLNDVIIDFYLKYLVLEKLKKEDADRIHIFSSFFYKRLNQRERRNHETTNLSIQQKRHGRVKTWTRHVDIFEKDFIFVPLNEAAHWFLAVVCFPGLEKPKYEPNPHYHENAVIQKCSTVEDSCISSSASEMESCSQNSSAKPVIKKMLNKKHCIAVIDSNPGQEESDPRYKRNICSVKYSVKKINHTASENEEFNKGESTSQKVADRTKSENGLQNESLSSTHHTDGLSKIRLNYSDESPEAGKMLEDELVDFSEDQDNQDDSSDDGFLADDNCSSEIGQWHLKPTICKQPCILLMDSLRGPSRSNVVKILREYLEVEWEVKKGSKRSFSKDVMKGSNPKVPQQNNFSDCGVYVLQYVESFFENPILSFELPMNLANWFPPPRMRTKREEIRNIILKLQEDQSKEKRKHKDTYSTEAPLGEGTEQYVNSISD

Caspase-3 = target: T4, Caspase-3 (Homo sapiens, UniProt P42574); assay type: functional;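 also: Dose-response selectivity test against caspase-3 for candidate inhibitors of sentrin-specific proteases (SENPs)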
T4 sequence (P42574 whole entry): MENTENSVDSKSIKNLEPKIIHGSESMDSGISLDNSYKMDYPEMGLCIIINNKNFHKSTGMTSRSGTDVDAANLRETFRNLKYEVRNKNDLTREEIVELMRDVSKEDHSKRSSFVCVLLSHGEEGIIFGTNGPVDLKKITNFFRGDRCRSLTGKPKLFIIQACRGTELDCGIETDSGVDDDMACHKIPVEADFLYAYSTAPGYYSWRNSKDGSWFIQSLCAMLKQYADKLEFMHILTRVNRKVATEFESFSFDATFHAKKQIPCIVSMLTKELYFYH

[11] = target: T5, Sentrin-specific protease 7 (Homo sapiens, UniProt Q9BQF6); assay type: functional;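 also: Luminescence-based dose-response confirmation of ultra-high-throughput screening hits, measuring inhibition of SENP7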
T5 sequence (Q9BQF6 whole entry): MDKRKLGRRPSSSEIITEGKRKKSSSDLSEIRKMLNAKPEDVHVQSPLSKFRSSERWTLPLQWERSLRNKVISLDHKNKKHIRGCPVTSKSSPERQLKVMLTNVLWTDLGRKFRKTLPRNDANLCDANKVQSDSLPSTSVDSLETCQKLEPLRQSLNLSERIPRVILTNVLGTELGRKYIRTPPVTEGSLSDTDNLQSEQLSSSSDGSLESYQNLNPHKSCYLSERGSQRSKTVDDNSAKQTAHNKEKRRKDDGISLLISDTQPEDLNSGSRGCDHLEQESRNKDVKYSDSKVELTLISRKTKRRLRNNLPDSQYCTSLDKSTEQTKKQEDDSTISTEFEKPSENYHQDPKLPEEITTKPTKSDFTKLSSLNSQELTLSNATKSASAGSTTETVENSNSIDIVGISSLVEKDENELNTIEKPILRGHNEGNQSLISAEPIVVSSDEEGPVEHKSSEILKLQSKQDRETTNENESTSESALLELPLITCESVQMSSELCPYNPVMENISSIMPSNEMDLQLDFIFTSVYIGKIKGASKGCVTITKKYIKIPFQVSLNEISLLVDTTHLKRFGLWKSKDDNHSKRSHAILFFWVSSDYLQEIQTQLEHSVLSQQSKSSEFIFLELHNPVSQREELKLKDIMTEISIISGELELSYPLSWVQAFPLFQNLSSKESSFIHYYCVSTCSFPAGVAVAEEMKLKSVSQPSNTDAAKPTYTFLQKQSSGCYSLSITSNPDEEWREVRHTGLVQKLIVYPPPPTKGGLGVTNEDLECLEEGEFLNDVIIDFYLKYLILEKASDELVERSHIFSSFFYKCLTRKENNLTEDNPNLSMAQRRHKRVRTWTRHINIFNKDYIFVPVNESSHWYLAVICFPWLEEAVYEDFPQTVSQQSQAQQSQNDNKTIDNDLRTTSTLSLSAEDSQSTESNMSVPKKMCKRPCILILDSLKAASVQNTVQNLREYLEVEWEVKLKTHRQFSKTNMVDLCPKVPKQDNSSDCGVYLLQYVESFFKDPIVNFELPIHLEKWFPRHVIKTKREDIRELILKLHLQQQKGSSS

[12] = target: T6, Sentrin-specific protease 8 (Homo sapiens, UniProt Q96LD8); assay type: functional;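 also: luminescence read-out of SENP8 inhibition, dose-response confirmation following an ultra-high-throughput screen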
T6 sequence (Q96LD8 whole entry): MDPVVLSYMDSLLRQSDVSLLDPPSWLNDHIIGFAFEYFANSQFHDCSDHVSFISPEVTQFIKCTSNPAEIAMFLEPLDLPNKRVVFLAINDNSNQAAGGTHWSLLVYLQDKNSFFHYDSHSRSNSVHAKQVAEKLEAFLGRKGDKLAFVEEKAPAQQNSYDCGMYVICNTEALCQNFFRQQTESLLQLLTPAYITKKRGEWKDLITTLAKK

H9c2 = test: cells; assay type: functional, cell-based; settings: Rattus norvegicus, H9c2, Myocardium
[13] = ARNT/TACC3 interaction disruptors, potency, confirmation, biochemical, AlphaScreen, cherry-picked samples (AID 651703); assay type: functional, Homo sapiens;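 also: His-tagged ARNT PAS-B domain paired with GST-TACC3 E629A dimer coactivator fragment; potency of inhibitors that break up the complex and lower AlphaScreen signal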
[14] = inhibitors of intracellular T. cruzi replication, confirmation, NIH3T3 host cells, beta-gal luminescence (AID 2044); assay type: functional, cell-based;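 also: intracellular parasites grown in NIH/3T3 mouse fibroblasts as host cells; luminescent beta-galactosidase reporter signal from transgenic T. cruzi replicating inside host cells; inhibitors lower the luminescence signal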
[15] = cytotoxicity toward NIH3T3 fibroblasts, dose response, counter-screen, cell-based, ATP luminescence, mouse fibroblasts (AID 2010); assay type: functional;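 also: cells exposed to compound for about 90 hours before reading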

DNA (cytosine-5)-methyltransferase 1, sequence (P26358 whole entry, the tested form may be a part): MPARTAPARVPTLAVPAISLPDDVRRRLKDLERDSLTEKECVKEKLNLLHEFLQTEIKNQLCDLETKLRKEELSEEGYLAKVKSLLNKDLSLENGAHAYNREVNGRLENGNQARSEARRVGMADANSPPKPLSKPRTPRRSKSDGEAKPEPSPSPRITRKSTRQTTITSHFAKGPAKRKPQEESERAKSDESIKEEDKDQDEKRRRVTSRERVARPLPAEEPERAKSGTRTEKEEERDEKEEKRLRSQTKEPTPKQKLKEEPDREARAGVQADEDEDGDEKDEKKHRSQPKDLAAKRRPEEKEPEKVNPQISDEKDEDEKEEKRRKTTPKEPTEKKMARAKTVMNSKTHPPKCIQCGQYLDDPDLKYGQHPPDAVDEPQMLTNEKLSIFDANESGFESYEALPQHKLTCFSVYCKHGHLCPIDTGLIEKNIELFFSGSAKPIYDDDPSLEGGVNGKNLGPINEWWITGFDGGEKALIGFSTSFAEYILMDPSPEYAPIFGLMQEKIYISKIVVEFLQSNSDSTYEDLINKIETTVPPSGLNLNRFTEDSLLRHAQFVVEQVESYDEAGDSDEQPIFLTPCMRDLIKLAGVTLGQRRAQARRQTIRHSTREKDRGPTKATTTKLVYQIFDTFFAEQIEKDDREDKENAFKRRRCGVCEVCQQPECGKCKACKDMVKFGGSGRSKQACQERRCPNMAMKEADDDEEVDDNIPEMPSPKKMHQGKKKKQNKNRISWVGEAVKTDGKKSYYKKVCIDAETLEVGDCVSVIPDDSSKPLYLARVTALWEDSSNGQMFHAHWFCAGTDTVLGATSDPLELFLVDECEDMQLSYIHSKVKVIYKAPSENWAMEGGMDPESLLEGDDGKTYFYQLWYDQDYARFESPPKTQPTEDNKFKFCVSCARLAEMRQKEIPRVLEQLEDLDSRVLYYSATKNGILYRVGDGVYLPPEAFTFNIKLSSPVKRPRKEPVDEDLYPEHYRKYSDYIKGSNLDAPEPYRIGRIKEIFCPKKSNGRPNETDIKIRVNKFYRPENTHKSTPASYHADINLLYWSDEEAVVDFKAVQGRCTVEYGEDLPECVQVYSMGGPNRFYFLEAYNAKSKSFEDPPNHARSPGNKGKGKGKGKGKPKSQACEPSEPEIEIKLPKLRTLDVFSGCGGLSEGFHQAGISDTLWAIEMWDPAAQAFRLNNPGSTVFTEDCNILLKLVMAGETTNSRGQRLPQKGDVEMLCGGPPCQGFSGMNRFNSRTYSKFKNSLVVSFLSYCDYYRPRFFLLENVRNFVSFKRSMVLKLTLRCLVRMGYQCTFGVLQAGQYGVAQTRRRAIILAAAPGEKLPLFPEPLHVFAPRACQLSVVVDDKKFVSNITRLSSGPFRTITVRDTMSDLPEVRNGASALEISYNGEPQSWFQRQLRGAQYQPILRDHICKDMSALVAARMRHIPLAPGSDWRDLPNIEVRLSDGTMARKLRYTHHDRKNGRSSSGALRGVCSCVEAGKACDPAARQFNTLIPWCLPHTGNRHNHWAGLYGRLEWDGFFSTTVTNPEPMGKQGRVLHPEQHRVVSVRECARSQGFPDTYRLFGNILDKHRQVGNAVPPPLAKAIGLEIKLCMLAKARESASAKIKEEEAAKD

## O=C1CC(=O)NC(SCC(=O)Nc2ccccc2[N+](=O)[O-])=N1
[1]
  IC50: 8.51 µM (active)
[2]
  IC50: 4.04 µM (active)

## O=C(COC(=O)c1ccc(NS(=O)(=O)c2cccs2)cc1)NCc1ccco1
[3]
  IC50: 3.09 µM (active)
[1]
  IC50: 9.6 µM (active)

## O=C(Nc1nnc(-c2ccccn2)o1)c1cccc(Cl)c1
[4]
  EC50: > 50 µM (active)
[5]
  CC50: > 40 µM (active)
cells
  IC50: 3.73 µM (active)
Streptococcus
  EC50: 16.5 µM (active)
[6]
  CC50: > 20 µM (active)
Streptokinase A
  EC50: > 150 µM (not active)
[7]
  AC50: 89.6 µM (active)
[8]
  EC50: 2.42 µM (active)

## C[C@H]1CN([C@@H](C)CO)C(=O)c2cccc(NC(=O)Nc3cccc4ccccc34)c2O[C@H]1CN(C)S(=O)(=O)c1cccs1
[9]
  AC50: 4.61 µM (active)

## CCOC(=O)c1ccccc1N/C=C/C(=O)c1ccccc1
[10]
  IC50: 16.2 µM (active)
Caspase-3
  IC50: 33.1 µM (active)
[11]
  IC50: 9.9 µM (active)
[12]
  IC50: 18.7 µM (active)

## C[C@@H]1CN([C@@H](C)CO)C(=O)c2cccc(NC(=O)Nc3ccc4c(c3)OCO4)c2O[C@H]1CN(C)Cc1ccc(C(=O)Nc2ccccc2N)cc1
[9]
  AC50: 1.04 µM (active)

## C[C@H]1CN([C@@H](C)CO)C(=O)c2cccc(NC(=O)CCCCCC(=O)Nc3ccccc3N)c2O[C@@H]1CN(C)CC1CC1
[9]
  AC50: 2.88 µM (active)

## CCCCCCCCC(=O)c1c(OC)oc(C=O)cc1=O
[1]
  IC50: 8.25 µM (active)

## Cc1c(Cl)cnc(NC(=O)COC(=O)c2ccc([N+](=O)[O-])s2)c1Cl
[10]
  IC50: 5.92 µM (active)
Caspase-3
  IC50: 11.1 µM (active)
H9c2
  IC50: > 79 µM (inactive)
[11]
  IC50: 10.6 µM (active)
[12]
  IC50: 6.85 µM (active)

## COCCn1c(N)c(C(=O)NCc2cccs2)c2nc3ccccc3nc21
[13]
  AC50: 130 µM (active)

## O=C(O)c1cccc(-c2nnn(Cc3ccccc3Cl)n2)c1
[10]
  IC50: > 100 µM (inactive)
Caspase-3
  IC50: 15.6 µM (active)
[11]
  IC50: > 100 µM (inactive)
[12]
  IC50: 10.9 µM (active)

## Cc1ccc(C(=O)COC(=O)c2cccc(NC(=O)c3ccc([N+](=O)[O-])cc3[N+](=O)[O-])c2)cc1
[10]
  IC50: 4.89 µM (active)
[14]
  EC50: 1.11 µM (active)
Caspase-3
  IC50: 22.2 µM (active)
[15]
  EC50: > 60 µM (not active)
[11]
  IC50: 5.97 µM (active)
[12]
  IC50: > 100 µM (inactive)

## O=C(CSc1ccc2nnc(-c3ccccn3)n2n1)Nc1ccccc1C(F)(F)F
[7]
  AC50: 136 µM (active)

Reference: ChEMBL document CHEMBL1201862, “PubChem BioAssay data set” (2004)
